Reference: ChEMBL document CHEMBL1201862, “PubChem BioAssay data set” (2004)
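Cultured in 96-well plates, cells were exposed to test compound for 48 hours across five concentrations. GI50 = concentration required for 50% inhibition of growth.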 Active and inactive are the calls of the source. Rule as the data show it: active = GI50 up to about 1.1 µM and inactive = higher.

Key:
Assay in all cases: NCI anticancer screen, dose series, 48 h
786-0 = test system: 786-0
A498 = test system: A498
A549 = test system: A549
BT-549 = test system: BT-549
CAKI-1 = test system: CAKI-1
HCC 2998 = test system: HCC 2998
Hs-578T = test system: Hs-578T
K562 = test system: K562
MDA-N = test system: MDA-N
NCI-H23 = test system: NCI-H23
NCI-H522 = test system: NCI-H522
OVCAR-3 = test system: OVCAR-3
RXF 393 = test system: RXF 393
SF-268 = test system: SF-268
SF-295 = test system: SF-295
SK-OV-3 = test system: SK-OV-3
SN12C = test system: SN12C
U-251 = test system: U-251
UACC-257 = test system: UACC-257
UO-31 = test system: UO-31

SMILES | GI50 (786-0) | GI50 (A498) | GI50 (A549) | GI50 (BT-549) | GI50 (CAKI-1) | GI50 (HCC 2998) | GI50 (Hs-578T) | GI50 (K562) | GI50 (MDA-N) | GI50 (NCI-H23) | GI50 (NCI-H522) | GI50 (OVCAR-3) | GI50 (RXF 393) | GI50 (SF-268) | GI50 (SF-295) | GI50 (SK-OV-3) | GI50 (SN12C) | GI50 (U-251) | GI50 (UACC-257) | GI50 (UO-31)
O=C1CSC(/C(=C\c2ccc(Cl)cc2)c2nc3ccccc3[nH]2)=N1 | 13.6 µM (inactive) | 4.19 µM (inactive) | 4.05 µM (inactive) | 19.2 µM (inactive) | 8.79 µM (inactive) | 3.43 µM (inactive) | 18.7 µM (inactive) | 34.4 µM (inactive) | 18.2 µM (inactive) | 14.8 µM (inactive) | 5.3 µM (inactive) | 7.78 µM (inactive) | 0.738 µM (active) | 5.08 µM (inactive) | 9.2 µM (inactive) | 11.5 µM (inactive) | 17.8 µM (inactive) | 12.3 µM (inactive) | 16.2 µM (inactive) | 3.03 µM (inactive)
COP(=O)(/C=C/c1cc(C(=O)OCc2ccccc2)n(S(=O)(=O)c2ccccc2)c1)OC | > 100 µM (inactive) | > 100 µM (inactive) | > 100 µM (inactive) | > 100 µM (inactive) | > 100 µM (inactive) | > 100 µM (inactive) | > 100 µM (inactive) | > 100 µM (inactive) | > 100 µM (inactive) | > 100 µM (inactive) | > 100 µM (inactive) | > 100 µM (inactive) | > 100 µM (inactive) | > 100 µM (inactive) | > 100 µM (inactive) | > 100 µM (inactive) | > 100 µM (inactive) | > 100 µM (inactive) | > 100 µM (inactive) | > 100 µM (inactive)
O=C(NNCC(F)(F)F)c1ccncc1 | > 100 µM (inactive) | > 100 µM (inactive) | > 100 µM (inactive) | > 100 µM (inactive) | > 100 µM (inactive) | > 100 µM (inactive) | > 100 µM (inactive) | > 100 µM (inactive) | > 100 µM (inactive) | > 100 µM (inactive) | > 100 µM (inactive) | > 100 µM (inactive) | > 100 µM (inactive) | > 100 µM (inactive) | > 100 µM (inactive) | > 100 µM (inactive) | > 100 µM (inactive) | > 100 µM (inactive) | > 100 µM (inactive) | > 100 µM (inactive)
Cc1c(/N=N/c2ccc([N+](=O)[O-])cc2)nc2scc(-c3ccccc3)n12 | > 100 µM (inactive) | > 100 µM (inactive) | > 100 µM (inactive) | > 78.7 µM (inactive) | > 73.3 µM (inactive) | > 100 µM (inactive) | > 78.7 µM (inactive) | 22 µM (inactive) | > 100 µM (inactive) | 90.8 µM (inactive) | 46.5 µM (inactive) | > 100 µM (inactive) | 99.5 µM (inactive) | > 82.4 µM (inactive) | 52.7 µM (inactive) | > 100 µM (inactive) | > 100 µM (inactive) | > 100 µM (inactive) | > 100 µM (inactive) | 58.7 µM (inactive)
COC(=O)CC[N+]1=CCC(c2ccccc2)(c2ccccc2)O1 | > 100 µM (inactive) | > 100 µM (inactive) | > 100 µM (inactive) | > 100 µM (inactive) | > 100 µM (inactive) | > 100 µM (inactive) | > 100 µM (inactive) | > 100 µM (inactive) | 18.5 µM (inactive) | > 100 µM (inactive) | > 100 µM (inactive) | > 100 µM (inactive) | > 100 µM (inactive) | > 100 µM (inactive) | > 100 µM (inactive) | > 100 µM (inactive) | > 100 µM (inactive) | > 100 µM (inactive) | > 100 µM (inactive) | > 100 µM (inactive)
O/N=N\c1nc(-c2cccnc2)nc2ccccc12 | > 100 µM (inactive) | > 100 µM (inactive) | > 100 µM (inactive) | > 100 µM (inactive) | > 100 µM (inactive) | 87.9 µM (inactive) | > 100 µM (inactive) | > 100 µM (inactive) | > 100 µM (inactive) | > 100 µM (inactive) | > 100 µM (inactive) | > 100 µM (inactive) | – | > 100 µM (inactive) | > 100 µM (inactive) | > 100 µM (inactive) | > 100 µM (inactive) | > 100 µM (inactive) | > 100 µM (inactive) | 17.5 µM (inactive)
c1cc(-c2ccsc2-c2ccsc2)cs1 | > 93.3 µM (inactive) | > 100 µM (inactive) | 46.3 µM (inactive) | 81.1 µM (inactive) | > 100 µM (inactive) | 46.8 µM (inactive) | 59.3 µM (inactive) | > 27.2 µM (inactive) | 41.3 µM (inactive) | 46.3 µM (inactive) | 26.1 µM (inactive) | 23.8 µM (inactive) | 27.4 µM (inactive) | > 86.1 µM (inactive) | > 81.1 µM (inactive) | > 100 µM (inactive) | > 86.9 µM (inactive) | > 100 µM (inactive) | > 100 µM (inactive) | > 90.6 µM (inactive)
COCn1c(C)c(C)c2c(=O)oc(N(C)C)nc21 | > 100 µM (inactive) | 39 µM (inactive) | > 100 µM (inactive) | > 100 µM (inactive) | 13.6 µM (inactive) | > 100 µM (inactive) | > 100 µM (inactive) | > 100 µM (inactive) | > 100 µM (inactive) | > 100 µM (inactive) | > 100 µM (inactive) | – | > 100 µM (inactive) | – | > 100 µM (inactive) | > 100 µM (inactive) | > 100 µM (inactive) | > 100 µM (inactive) | > 100 µM (inactive) | 9.82 µM (inactive)
O=C(Cc1nc2ccc([N+](=O)[O-])cc2nc1O)C(=O)Nc1cc(Cl)c(Cl)cc1Cl | > 100 µM (inactive) | > 100 µM (inactive) | > 100 µM (inactive) | > 100 µM (inactive) | > 100 µM (inactive) | > 100 µM (inactive) | > 100 µM (inactive) | – | > 100 µM (inactive) | > 100 µM (inactive) | > 100 µM (inactive) | > 100 µM (inactive) | > 100 µM (inactive) | > 100 µM (inactive) | > 100 µM (inactive) | 71.3 µM (inactive) | > 100 µM (inactive) | > 100 µM (inactive) | > 100 µM (inactive) | > 100 µM (inactive)
Cc1nc(N)c(N2CCN(CN)CC2)c(O)n1 | > 100 µM (inactive) | > 100 µM (inactive) | > 100 µM (inactive) | > 100 µM (inactive) | – | > 100 µM (inactive) | > 100 µM (inactive) | > 100 µM (inactive) | > 100 µM (inactive) | > 100 µM (inactive) | > 100 µM (inactive) | > 100 µM (inactive) | – | > 100 µM (inactive) | > 100 µM (inactive) | – | > 100 µM (inactive) | > 100 µM (inactive) | > 100 µM (inactive) | > 100 µM (inactive)
COC(=O)NC(Nc1ccccn1)(C(F)(F)F)C(F)(F)F | > 100 µM (inactive) | > 100 µM (inactive) | > 100 µM (inactive) | > 100 µM (inactive) | > 100 µM (inactive) | > 100 µM (inactive) | > 100 µM (inactive) | > 100 µM (inactive) | > 100 µM (inactive) | > 100 µM (inactive) | > 100 µM (inactive) | > 100 µM (inactive) | 29.9 µM (inactive) | > 100 µM (inactive) | – | > 100 µM (inactive) | – | > 100 µM (inactive) | > 100 µM (inactive) | > 100 µM (inactive)
O=C(O)c1ccc(Nc2nc3cc(C(F)(F)F)ccc3nc2C(=O)O)cc1 | > 100 µM (inactive) | > 100 µM (inactive) | – | > 100 µM (inactive) | > 100 µM (inactive) | > 100 µM (inactive) | > 100 µM (inactive) | > 100 µM (inactive) | > 100 µM (inactive) | > 100 µM (inactive) | > 100 µM (inactive) | > 100 µM (inactive) | > 100 µM (inactive) | 93.3 µM (inactive) | > 100 µM (inactive) | – | > 100 µM (inactive) | > 100 µM (inactive) | – | > 100 µM (inactive)
O=C(Cn1c(C(=O)/C=C/c2ccc(Cl)cc2)nc2ccccc21)c1ccc(Cl)cc1 | 20.6 µM (inactive) | 32.3 µM (inactive) | 21 µM (inactive) | 24.5 µM (inactive) | – | 14.4 µM (inactive) | 10.9 µM (inactive) | 6.07 µM (inactive) | 20.7 µM (inactive) | 19.5 µM (inactive) | – | 8.87 µM (inactive) | 15.5 µM (inactive) | 23.3 µM (inactive) | – | 26.9 µM (inactive) | 14.1 µM (inactive) | 11.5 µM (inactive) | 24.1 µM (inactive) | 19.8 µM (inactive)
CC(NC(=O)C(N)Cc1ccc(O)cn1)C(=O)O (stereo not drawn) | > 100 µM (inactive) | > 100 µM (inactive) | > 100 µM (inactive) | > 100 µM (inactive) | > 100 µM (inactive) | > 100 µM (inactive) | > 100 µM (inactive) | > 100 µM (inactive) | > 100 µM (inactive) | > 100 µM (inactive) | > 100 µM (inactive) | > 100 µM (inactive) | > 100 µM (inactive) | > 100 µM (inactive) | > 100 µM (inactive) | – | > 100 µM (inactive) | > 100 µM (inactive) | > 100 µM (inactive) | > 100 µM (inactive)
CC1=CC(=O)[C@@H](O)[C@]2(C)[C@H]3[C@@]4(O)OC[C@]35[C@H]([C@@H](C)[C@H]4O)[C@@H](O)C(=O)O[C@@H]5C[C@@H]12 | 0.349 µM (active) | 0.448 µM (active) | 0.789 µM (active) | 0.318 µM (active) | 0.811 µM (active) | 0.227 µM (active) | 0.195 µM (active) | 0.475 µM (active) | 0.213 µM (active) | 0.192 µM (active) | 0.181 µM (active) | 0.247 µM (active) | 0.391 µM (active) | 0.231 µM (active) | 0.339 µM (active) | 0.607 µM (active) | – | 0.0509 µM (active) | 0.276 µM (active) | 0.416 µM (active)
